Patent publication US20200405708A1, “TREATMENT OF HEREDITARY ANGIOEDEMA” (Attune Pharmaceuticals, Inc., priority 2018, published 2020)
pEC50, pIC50: −log10 of the molar value. Values joined by “and” are separate entries in the source; they are usually repeats but may differ in a detail not shown here. Equal entries are not always repeated. “Also recorded” adds a separate entry of the source. One block for each compound: values may come before it.

Experiments:
[1] = target: T1, plasma kallikrein (Homo sapiens, UniProt P03952); assay: biochemical inhibition assay of plasma kallikrein
Method: (§1) Selectivity was evaluated by biochemical inhibition on plasma kallikrein relative to other serine proteases, including tissue kallikrein 5, plasmin, Factor Xa, Factor VIIa, thrombin, and tissue plasminogen activator (tPA). Potency was evaluated by biochemical inhibition and contact activation assays in human plasma. Pharmacokinetic exposure was evaluated in monkeys after a single oral administration of Compound A at 15 mg/kg. The no-observed-adverse-effect-level (NOAEL) was evaluated in 14-day non-GLP rat and monkey toxicology studies; animals were given daily doses of 100 or 300 mg/kg.
Target sequence in this assay (P03952 20-638): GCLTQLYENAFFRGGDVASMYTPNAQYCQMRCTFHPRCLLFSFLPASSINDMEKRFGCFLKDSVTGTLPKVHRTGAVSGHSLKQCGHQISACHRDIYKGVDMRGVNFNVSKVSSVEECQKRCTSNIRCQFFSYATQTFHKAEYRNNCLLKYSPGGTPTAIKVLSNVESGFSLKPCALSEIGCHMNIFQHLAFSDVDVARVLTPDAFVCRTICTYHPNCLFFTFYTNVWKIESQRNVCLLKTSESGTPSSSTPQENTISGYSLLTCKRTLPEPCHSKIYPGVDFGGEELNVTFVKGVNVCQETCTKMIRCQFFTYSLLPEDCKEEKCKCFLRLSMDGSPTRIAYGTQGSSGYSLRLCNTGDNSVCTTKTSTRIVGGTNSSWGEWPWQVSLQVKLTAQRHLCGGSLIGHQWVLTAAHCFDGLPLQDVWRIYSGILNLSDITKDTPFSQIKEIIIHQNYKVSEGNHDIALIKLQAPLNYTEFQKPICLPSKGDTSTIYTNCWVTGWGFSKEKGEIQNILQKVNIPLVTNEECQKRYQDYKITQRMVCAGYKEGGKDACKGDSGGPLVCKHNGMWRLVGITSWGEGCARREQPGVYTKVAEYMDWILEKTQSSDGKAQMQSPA

[2] = system: tissue kallikrein 5, tissue kallikrein 7, tissue kallikrein 14, plasmin, Factor Xa, Factor VIIa, thrombin, tissue plasminogen activator (tPA); assay: selectivity by biochemical inhibition versus other serine proteases
Method: as §1

[3] = pharmacokinetic exposure after single oral dose in monkeys; format: in vivo, monkey
Method: as §1

[4] = 14-day non-GLP rat and monkey toxicology studies; format: in vivo; details: daily doses of 100 or 300 mg/kg
Method: as §1

[5] = 28-day repeat dose general toxicity study in monkeys; format: in vivo, monkey
Method: FIG. 8. Graphic representation of 28-day repeat exposure in monkey toxicology study (NOAEL (100 mg/kg/day) at Day 28.

[6] = system: cytochrome P450 (CYP); assay: cytochrome P450 inhibition; format: in vitro ADME
[7] = bioavailability after single oral administration, rats; format: in vivo, rat; details: single oral 30 mg/kg
[8] = bioavailability after single oral administration, dogs; format: in vivo, dog; details: single oral 30 mg/kg
[9] = bioavailability after single oral administration, monkeys; format: in vivo, monkey; details: single oral 30 mg/kg
[10] = recovery of radiolabeled [14C] Compound A after single oral dosing in rats; format: in vivo, rat
Method: (§2) FIG. 7. A table showing metabolism and pharmacokinetics results of single oral dosing of Compound A. Metabolism study was conducted with radiolabeled [^14C] Compound A.

[11] = single dose safety pharmacology in rat and monkey; format: in vivo
Description: FIG. 9. A table showing safety pharmacology of Compound A single dose in rat and monkey.

[12] = toxicology and genotoxicity studies
Description: FIG. 10. A table showing toxicology/genotoxicity of Compound A.

[13] = single-ascending-dose and food effect pharmacokinetics in healthy male participants; format: in vivo; set-up: Mean C24: unit not given here; details: human; for AUCinf, geometric mean (geometric % CV) / Cmax, geometric mean (geometric % CV): n = 6; for Mean Cmax: in ng/mL; for Mean AUCinf: in ng·h/mL
Method: (§3) A randomized, double-blind, placebo-controlled single ascending dose and crossover food effect study
(§4) 48 healthy male participants (6 active:2 placebo in each of the 6 dose cohorts) received a single daily dose of Compound A 50 mg, 100 mg, 150 mg, 200 mg, 400 mg, or 800 mg. Subjects in the 100 mg dose cohort received first dose of Compound A under fasted condition in period 1 and after a 7-day washout, a second dose 30 minutes after the start of a high fat, high caloric meal in period 2. Serial blood draws were collected to calculate PK parameters, including area under the curve (AUC) from time zero to infinity (AUC), maximum concentration (Cmax), time of maximum concentration (Tmax), and half-life. Safety measures including treatment-emergent adverse events (TEAEs) were assessed.

[14] = safety and tolerability in single-ascending-dose study, healthy male participants; format: in vivo, human; details: all 6 dose cohorts
Method: as §3, §4

[15] = metabolism and pharmacokinetics studies of single oral dosing, all species; format: in vivo
Method: as §2

[16] = target: T1, plasma kallikrein; assay: contact activation assay in human plasma (ex vivo); format: biochemical; set-up: from tissue; host or cells: human plasma
Method: as §1
Target sequence in this assay (P03952 391-638 limits assumed): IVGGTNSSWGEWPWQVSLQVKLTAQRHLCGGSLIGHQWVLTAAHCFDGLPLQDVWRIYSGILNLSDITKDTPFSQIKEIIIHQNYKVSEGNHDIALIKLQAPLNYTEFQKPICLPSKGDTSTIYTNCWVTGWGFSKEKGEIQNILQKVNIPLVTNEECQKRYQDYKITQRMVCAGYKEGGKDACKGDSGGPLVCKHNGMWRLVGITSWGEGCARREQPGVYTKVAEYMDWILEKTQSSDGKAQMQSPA
Target sequence in this assay (P03952 20-390 partner limits assumed): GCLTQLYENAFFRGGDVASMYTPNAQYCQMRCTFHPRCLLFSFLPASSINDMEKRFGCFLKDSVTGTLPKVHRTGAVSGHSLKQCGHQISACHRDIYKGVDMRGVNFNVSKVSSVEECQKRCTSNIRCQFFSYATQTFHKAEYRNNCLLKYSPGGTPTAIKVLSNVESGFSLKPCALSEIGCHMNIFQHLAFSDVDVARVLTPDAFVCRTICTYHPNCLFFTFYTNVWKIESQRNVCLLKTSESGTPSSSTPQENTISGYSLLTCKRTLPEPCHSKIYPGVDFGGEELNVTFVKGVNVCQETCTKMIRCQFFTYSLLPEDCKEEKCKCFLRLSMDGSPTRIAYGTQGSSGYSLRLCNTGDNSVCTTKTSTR

[17] = 28-day repeat dose general toxicity study in rats
[18] = monkeys, single oral dose 15 mg/kg
[19] = 100 mg, fed (high fat, high caloric meal)

Compound: Cc1cc(N)nc(C)c1CNC(=O)c1ccnc(Cc2ccc3ncc(Cl)cc3c2)c1 [Compound A, N-((6-amino-2,4-dimethylpyridin-3-yl)methyl)-2-((3-chloroquinolin-6-yl)methyl)isonicotinamide]
pIC50 [1]: 8.57
IC90 [1]: 16.2 nM
fold more potent than C1-INH at inhibiting plasma kallikrein ([1]; biochemical inhibition assay): 9 fold and ~10 fold
selectivity for plasma kallikrein versus other closely related serine proteases [2]: > 2000 fold
24-h exposure relative to EC90 ([3]; monkey, in vivo, po, 15 mg/kg): 4 fold
Cmax exposure relative to EC90 ([3]; monkey, in vivo, po, 15 mg/kg): 25 fold
24-hour exposure (C24) relative to EC50 [3, 18]: 30 fold
Cmax exposure relative to EC50 [3, 18]: > 180 ×
fold below the no-observed-adverse-effect-level (NOAEL) ([3]; single dose 15 mg/kg): 20 fold
no-observed-adverse-effect-level (NOAEL) [4]: 300 mg/kg
Cmax exposure relative to EC50 ([5]; NOAEL dose, day 28): > 4500 ×
24-h exposure relative to EC90 ([5]; monkey, in vivo, 100 mg/kg/day): 20 fold
Cmax exposure relative to EC90 ([5]; monkey, in vivo, 100 mg/kg/day): > 600 fold
findings at high-dose level ([5]; monkey, in vivo, 300 mg/kg/day): adverse findings in monkeys reversed upon dose reduction to 150 mg/kg/day dose
NOAEL ([5]; monkeys, 28-day repeat dose): 100 mg/kg/day
inhibition of P450 enzymes [6]: does not significantly inhibit P450 enzymes
bioavailability [7]: > 40%
bioavailability [8]: > 40%
bioavailability [9]: > 40%
recovery of radiolabeled compound (in words) [10]: comprehensive recovery of radiolabeled Compound A
recovery ([10]; intact and bile duct cannulated rats): 99%
mortality or adverse effects on CNS, respiratory, cardiovascular functions [11]: no mortality or adverse effects were observed on central nervous system, respiratory, and cardiovascular functions
genotoxicity or coagulation issues [12]: no genotoxicity or coagulation issues were noted
AUCinf % Ratio, fed vs. fasted ([13]; 100 mg): 150.3%
Cmax % Ratio, fed vs. fasted ([13]; 100 mg): 128.5%
AUCinf, geometric mean (geometric % CV) ([13]; 100 mg, fasted): 2573 (135.1) ng*hr/mL
Cmax, geometric mean (geometric % CV) ([13]; 100 mg, fasted): 297 (236.1) ng/mL
AUCinf, geometric mean (geometric % CV) [13, 19]: 3866 (16.1) ng*hr/mL
Cmax, geometric mean (geometric % CV) [13, 19]: 382 (35.8) ng/mL
food effect on PK ([13]; 100 mg, high fat meal vs fasted): Minimal food effect
dose proportionality of AUCinf and Cmax / systemic exposure ([13]; 50-800 mg, fasted): increased proportionally with dose; also recorded: largely proportional to dose
AUCinf, mean (% CV) ([13]; fasted, 50 mg): 2056 (20.5)^ ng*hr/mL
Cmax, mean (% CV) ([13]; fasted, 50 mg): 244 (20.1) ng/mL
Half-Life, mean (% CV) ([13]; fasted, 50 mg): 6.5 (24.1) Hours
Tmax, mean (% CV) ([13]; fasted, 50 mg): 1.8 (43.3) Hours
AUCinf, mean (% CV) ([13]; fasted, 100 mg): 3325 (47.3) ng*hr/mL
Cmax, mean (% CV) ([13]; fasted, 100 mg): 449 (59.3) ng/mL
Half-Life, mean (% CV) ([13]; fasted, 100 mg): 8.0 (33.0) Hours
Tmax, mean (% CV) ([13]; fasted, 100 mg): 2.8 (109.7) Hours
AUCinf, mean (% CV) ([13]; fasted, 150 mg): 8569 (37.9)^ ng*hr/mL
Cmax, mean (% CV) ([13]; fasted, 150 mg): 848 (33.9) ng/mL
Half-Life, mean (% CV) ([13]; fasted, 150 mg): 9.7 (15.4) Hours
Tmax, mean (% CV) ([13]; fasted, 150 mg): 1.9 (19.6) Hours
Half-Life, mean (% CV) ([13]; fasted, 200 mg): 9.8 (11.3) Hours
Tmax, mean (% CV) ([13]; fasted, 200 mg): 2.3 (50.2) Hours
AUCinf, mean (% CV) ([13]; fasted, 200 mg (5 subjects)): 8382 (30.2)^ ng*hr/mL
Cmax, mean (% CV) ([13]; fasted, 200 mg (5 subjects)): 693 (43.0) ng/mL
AUCinf, mean (% CV) ([13]; fasted, 400 mg): 14010 (21.1) ng*hr/mL
Cmax, mean (% CV) ([13]; fasted, 400 mg): 1351 (18.8) ng/mL
Half-Life, mean (% CV) ([13]; fasted, 400 mg): 9.5 (9.9) Hours
Tmax, mean (% CV) ([13]; fasted, 400 mg): 2.4 (57.7) Hours
AUCinf, mean (% CV) ([13]; fasted, 800 mg): 30180 (35.7) ng*hr/mL
Cmax, mean (% CV) ([13]; fasted, 800 mg): 3015 (32.0) ng/mL
Half-Life, mean (% CV) ([13]; fasted, 800 mg): 9.0 (9.9) Hours
Tmax, mean (% CV) ([13]; fasted, 800 mg): 2.9 (33.3) Hours
Mean C24 ([13]; fasted, dose 50): 19.3
Mean Cmax ([13]; fasted, dose 50): 244
Mean AUCinf ([13]; fasted, dose 50): 2056
Mean C24 ([13]; fasted, dose 100): 27.7
Mean Cmax ([13]; fasted, dose 100): 449
Mean AUCinf ([13]; fasted, dose 100): 3325
Mean C24 ([13]; fasted, dose 150): 83.6
Mean Cmax ([13]; fasted, dose 150): 848
Mean AUCinf ([13]; fasted, dose 150): 8569
Mean C24 ([13]; fasted, dose 200): 69.2
Mean Cmax ([13]; fasted, dose 200): 693
Mean AUCinf ([13]; fasted, dose 200): 8382
Mean C24 ([13]; fasted, dose 400): 124.0
Mean Cmax ([13]; fasted, dose 400): 1351
Mean AUCinf ([13]; fasted, dose 400): 14010
Mean C24 ([13]; fasted, dose 800): 274.0
Mean Cmax ([13]; fasted, dose 800): 3015
Mean AUCinf ([13]; fasted, dose 800): 30180
drug-related TEAEs and serious AEs [14]: No drug-related TEAEs and no serious AEs; also recorded: no moderate or severe TEAEs, no drug-related TEAEs, no SAEs, and no dose limiting toxicity
safety and tolerability (in words) [14]: generally safe and well tolerated
severity of TEAEs [14]: all TEAEs were mild (grade 1)
number of TEAEs observed ([14]; 50-800 mg single dose): 29
bioavailability (in words) [15]: good bioavailability in all species
fold more potent than C1-INH at inhibiting plasma kallikrein ([16]; contact activation assay): 11 fold and ~10 fold
pEC50 ([16]; human plasma): 8.09
EC90 ([16]; human plasma): 61.6 nM
findings at high-dose level ([17]; 300 mg/kg/day, not considered adverse): decreases in body weight and food consumption
NOAEL ([17]; 28-day repeat dose): 300 mg/kg/day

pIC50 [1]: 7.60
IC90 [1]: 157 nM
pEC50 ([16]; human plasma): 7.03
Compound: C1-INH: C1 inhibitor (C1-esterase inhibitor, serpin), which inhibits the activity of plasma kallikrein; comparator [Compound C1-INH]
